Nine molecules from patent publication US8624034B2, “Fluoro-pyridinone derivatives useful as antibacterial agents” (Pfizer Inc., priority 2011, dated 2014) can be followed below.

pIC50: −log10 of the molar value. ≈ marks a conversion by molar mass, not a printed value.

The target of test [1] is T1, Pseudomonas aeruginosa LpxC enzyme (Pseudomonas aeruginosa, UniProt P47205).
T1 construct: made in house; host or cells: E. coli
T1 sequence (P47205 1-303): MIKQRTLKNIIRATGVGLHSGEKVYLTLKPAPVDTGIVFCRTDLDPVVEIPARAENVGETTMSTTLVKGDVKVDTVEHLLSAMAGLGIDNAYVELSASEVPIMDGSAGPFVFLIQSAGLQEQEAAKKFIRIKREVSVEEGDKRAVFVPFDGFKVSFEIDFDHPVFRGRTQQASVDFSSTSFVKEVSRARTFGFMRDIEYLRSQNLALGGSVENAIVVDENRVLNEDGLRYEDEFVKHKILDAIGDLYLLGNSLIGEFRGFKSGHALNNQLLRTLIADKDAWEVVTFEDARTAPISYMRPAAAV
Kind of test: IC50 assay, LpxC enzyme from P. aeruginosa (PA LpxC enzyme IC50). The test is classed as biochemical. Conditions: Table 2; LpxC enzyme 0.1 nM, 25° C., 1 hour; read-out: PA:IC50. In outline:
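The LpxC reaction ran 1 hour and was stopped with HCl. Substrate-to-product conversion was measured by RapidFire mass spectrometry, and IC50 values were calculated from percent conversion relative to a no-enzyme control.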

The test system of test [2] is Acinetobacter baumannii/haemolyticus, multidrug-resistant clinical isolate (AB-3167). Kind of test: MIC determination, AB-3167. It is filed as cell-based. Conditions: Table 2, lower of duplicate values. Put shortly: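 Broth dilution MIC per CLSI M7-A8, 2-fold drug series, overnight incubation, lowest concentration visibly inhibiting growth against drug-free control. Run in duplicate, lower value reported; duplicates differing >2-fold repeated; QC strains and reference compounds required in range.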

The test system of test [3] is Escherichia coli EC-1: VOGEL, mouse virulent. Kind of test: MIC determination, EC-1. As to conditions: Escherichia coli, read-out: EC-1 (MIC), Table 2, lower of duplicate values. It is filed as cell-based. In outline:
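MIC against mouse-virulent E. coli EC-1 (VOGEL) was determined by CLSI M7-A8 broth dilution with 2-fold drug increments and overnight incubation. The MIC is the lowest concentration with no visible growth versus drug-free control. Tests were run in duplicate and the lower value reported if within 2-fold, with QC organisms and reference drugs in each run.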

The subject of test [4] is Pseudomonas aeruginosa UI-18: wild-type (PA-7). Kind of test: MIC determination, PA-7. It is filed as cell-based. As to conditions: Table 2, lower of duplicate values. How it is done:
The in vitro antibacterial activity of compounds described in the Examples was evaluated by minimum inhibitory concentration (MIC) testing according to Clinical and Laboratory Standards Institute (CLSI). See: Clinical and Laboratory Standards Institute. Methods for Dilution Antimicrobial Susceptibility Tests for Bacteria that Grow Aerobically; Approved Standard-Eighth Edition. CLSI document M7-A8 [ISBN 1-56238-689-1]. Clinical and Laboratory Standards Institute, 940 West Valley Road, Suite 1400, Wayne, Pa. 19087-1898 USA, 2006; also Clinical and Laboratory Standards Institute. Performance Standards for Antimicrobial Susceptibility Testing; Twentieth Informational Supplement. CLSI document M100-S20 [ISBN 1-56238-716-2]. Clinical and Laboratory Standards Institute.
The MIC determination is a standard laboratory method for evaluating the antibacterial activity of a compound. The MIC represents the lowest drug concentration that inhibits visible growth of bacteria following overnight incubation. […] Typically, the drug concentration range is broken down into 2-fold increments (e.g. 0.06 μg/mL, 0.12 μg/mL. 0.25 μg/mL, 0.50 μg/mL, 1.0 μg/mL, etc.) and the various drug concentrations are all individually incubated overnight with approximately the same number of bacteria. The MIC is then determined by visually inspecting the drug effect at each concentration, and identifying the lowest drug concentration that has inhibited bacterial growth as compared to the drug free control. Typically, bacteria continue to grow at drug concentrations lower than the MIC and don't grow at concentrations at and above the MIC.
The MIC values described in Table 2 and 3 below were derived from assays wherein each test compound was evaluated in duplicate. In cases where the duplicate values varied by 0-2-fold, the lower of the two values was reported below. Generally speaking, if the duplicate values varied by more than 2-fold, the assay was considered non-valid and was repeated until the variation between duplicate runs was ≦2-fold. In line with the CLSI guidelines referred to above, both control organisms and reference compounds were utilized in each MIC assay to provide proper quality control. MIC values generated with these control organisms and reference compounds were required to fall within a defined range for the assay to be considered valid and be included herein. Those skilled in the art will recognize that MIC values can and do vary from experiment to experiment. Generally speaking, it should be recognized that MIC values often vary +/−2-fold from experiment to experiment. While a single MIC is reported for each compound and each microorganism, the reader should not conclude that each compound was only tested once. Several of the compounds were subjected to multiple tests. The data reported in Tables 2 and 3 is reflective of the compounds relative activity and different MICs may have been generated on these occasions in line with the guidelines described above.
The following bacterial strains were used in these MIC determinations:
1) Pseudomonas aeruginosa UI-18: Wild-type, labeled as PA-7 in Tables 2 and 3;

As for `C[C@@](CCn1cc(F)c(-c2ccc(Cl)cc2)cc1=O)(C(=O)NO)S(C)(=O)=O` [Example 3, (2R)-4-[4-(4-Chlorophenyl)-5-fluoro-2-oxopyridin-1(2H)-yl]-N-hydroxy-2-methyl-2-(methylsulfonyl)butanamide], in test [1], the pIC50 (usually the IC50 on a negative log10 scale, so that one unit is a factor of ten) was 9.49. The results for the MIC in test [2], in test [3] and in test [4] were 64 µg/mL (≈ 154 µM), 0.25 µg/mL (≈ 0.6 µM) and 0.25 µg/mL (≈ 0.6 µM), respectively.
Consider `C[C@@](CCn1cc(F)c(-c2ccc(-n3nccn3)cc2)cc1=O)(C(=O)NO)S(C)(=O)=O` [Example 26, (2R)-4-{5-Fluoro-2-oxo-4-[4-(2H-1,2,3-triazol-2-yl)phenyl]pyridin-1(2H)-yl}-N-hydroxy-2-methyl-2-(methylsulfonyl)butanamide], for which the pIC50 in test [1] was 10.13. Also, the figures for the MIC in test [2], in test [3] and in test [4] were greater than 64 µg/mL, no more than 0.06 µg/mL and 0.25 µg/mL (≈ 0.556 µM), respectively.
For `C[C@@](CCn1cc(F)c(-c2ccc(OC3CC3)cc2)cc1=O)(C(=O)NO)S(C)(=O)=O` [Example 46, (2R)-4-{4-[4-(Cyclopropyloxy)phenyl]-5-fluoro-2-oxopyridin-1(2H)-yl}-N-hydroxy-2-methyl-2-(methylsulfonyl)butanamide], in test [1], the pIC50 is 9.64. Further, the values for the minimal inhibitory concentration (MIC) in test [2], in test [3] and in test [4] were greater than 64 µg/mL, 0.125 µg/mL (≈ 0.285 µM) and 0.5 µg/mL (≈ 1.14 µM), respectively.
In the same order, the values of `C[C@@](CCn1cc(F)c(-c2ccc(S(F)(F)(F)(F)F)cc2)cc1=O)(C(=O)NO)S(C)(=O)=O` [Example 12, (2R)-4-{5-Fluoro-2-oxo-4-[4-(pentafluoro-6λ-sulfanyl)phenyl]pyridin-1(2H)-yl}-N-hydroxy-2-methyl-2-(methylsulfonyl)butanamide] are 8.94, greater than 64 µg/mL, 4 µg/mL (≈ 7.87 µM) and 4 µg/mL (≈ 7.87 µM).
Take `C[C@@](CCn1cc(F)c(-c2ccc3c(c2)CCO3)cc1=O)(C(=O)NO)S(C)(=O)=O` [Example 5, (2R)-4-[4-(2,3-Dihydro-1-benzofuran-5-yl)-5-fluoro-2-oxopyridin-1(2H)-yl]-N-hydroxy-2-methyl-2-(methylsulfonyl)butanamide]: in test [1], the pIC50 was 9.09. The MIC (usually the lowest concentration found to suppress growth) in test [2] was greater than 64 µg/mL; in test [3], 1 µg/mL (≈ 2.36 µM); in test [4], 1 µg/mL (≈ 2.36 µM).
As to `C[C@@](CCn1cc(F)c(-c2ccc(F)c(F)c2)cc1=O)(C(=O)NO)S(C)(=O)=O` [Example 6, (2R)-4-[4-(3,4-Difluorophenyl)-5-fluoro-2-oxopyridin-1(2H)-yl]-N-hydroxy-2-methyl-2-(methylsulfonyl)butanamide], the pIC50 in test [1] was 9.08. The MIC was greater than 64 µg/mL in test [2], 1 µg/mL (≈ 2.39 µM) in test [3] and 0.5 µg/mL (≈ 1.2 µM) in test [4].
For `C[C@@](CCn1cc(F)c(-c2ccc(-c3ncccn3)cc2)cc1=O)(C(=O)NO)S(C)(=O)=O` [Example 20, (2R)-4-[5-Fluoro-2-oxo-4-(4-pyrimidin-2-ylphenyl)pyridin-1(2H)-yl]-N-hydroxy-2-methyl-2-(methylsulfonyl)butanamide] the same measures were 9.02, greater than 64 µg/mL, 0.125 µg/mL (≈ 0.271 µM) and 1 µg/mL (≈ 2.17 µM).
In the same order, the values of `CCOc1ccc(-c2cc(=O)n(CC[C@](C)(C(=O)NO)S(C)(=O)=O)cc2F)cc1` [Example 10, (2R)-4-[4-(4-Ethoxyphenyl)-5-fluoro-2-oxopyridin-1(2H)-yl]-N-hydroxy-2-methyl-2-(methylsulfonyl)butanamide] are 9.08, greater than 64 µg/mL, 0.25 µg/mL (≈ 0.586 µM) and 1 µg/mL (≈ 2.34 µM).
In the same order, the values of `COc1ccc(-c2cc(=O)n(CC[C@](C)(C(=O)NO)S(C)(=O)=O)cc2F)c(F)c1` [Example 27, (2R)-4-[5-Fluoro-4-(2-fluoro-4-methoxyphenyl)-2-oxopyridin-1(2H)-yl]-N-hydroxy-2-methyl-2-(methylsulfonyl)butanamide] are 10.30, greater than 64 µg/mL, 0.25 µg/mL (≈ 0.581 µM) and 0.5 µg/mL (≈ 1.16 µM).
